# Test results reported in patent US20130303619A1, “Antibacterial Compositions” (priority 2009, published 2013).
# “Also recorded” adds a separate entry of the source.
# What was measured:
# [1] = test system: LL-37 expression by OBA9 cells; assay: LL-37 expression by OBA9 cells with Sepharose-coupled benzoic acid isomers; type: cell-based, human; settings: isomer coupled to NBS-activated Sepharose gel
# Excerpt: In order to investigate the structure-function relationship underlying EGCG-mediated induction of LL-37 from human gingival epithelial cell line OBA9, different isomers of benzoic acids are examined for their effects on the LL-37 expression by OBA9 cells. Each isomer of benzoic acids is coupled to NBS-activated Sepharose gel (Pierce) using a cross-linker, 1-Ethyl-3-[3-dimethylaminopropyl]carbodiimide (EDC, Pierce). The isomers of benzoic acids include 1) 2,6-di-hydroxy benzoic acid, 2) 2,3,4-tri-hydroxy benzoic acids, 3) 3,4,5-tri-hydroxy benzoic acids, and 4) 2,4,6-tri-hydroxy benzoic acids.
# [2] = target: T1, DEAD box polypeptide 5 (DDX5) (Homo sapiens, UniProt P17844); assay: Pull down assay with benzoic acid-coupled beads and OBA9 cell lysate, Mass-Spec; type: binding; settings: beads incubated with OBA9 cell lysate
# T1 construct: endogenous in cells; host or cells: OBA9 human gingival epithelial cell line (lysate)
# Excerpt: FIG. 1 is a schematic showing a pull down assay to determine counter ligand of benzoic acids expressed on OBA9 cells is DDX5. OBA9 cells were harvested and dissolved in lysis buffer. The resulting cell lysis solution was reacted with Sephadex beads conjugated with 2,6-dihydroxy benzoic acid (DHBC) and 2,3,4-trihydroxy benzoic acid (THBC). The cellular components pulled down with beads were separated in SDS-PAGE gel, and stained with Coomassie blue. The 35 kD and 70 kD bands specific to 2,3,4-THBC were subjected to Mass-Spec analysis at Tufts University Core Facility. The procedure for pull down assay includes preparation of cell lysate from gingival epithelial cell (OBA9) culture; preparation of beads conjugated with tri-hydroxy benzoic acid (THBC); incubation of beads with OBA9 cell lysate; remove unbound protein by washing beads; the proteins bound to beads are separated in SDS-PAGE; distinct bands to 2,3,4-THBC are sent for Mass-Spec service; and identification of molecular finger print of 2,3,4-THBC binding ligand.
# FIG. 2 is a schematic including the molecular finger print found in 70 kD band specific to 2,3,4-THDC that is DDX5 (SEQ ID NO: 1). The 35 kD, 70 kD and 90 kD bands specific to 2,3,4-THBC were subjected to Mass-Spec analysis service. […] Result data sheet that identified DDX5 in 70 kD band is shown.
# In order to confirm if LL-37 induction in epithelial cells by EGCG is dependent on the activation of cell ligand (either cytoplasm or cell surface), or previously known anti-oxidant effects by EGCG, 3,4,5-tri-hydroxy benzoic acid-coupled beads and control 2,6-di-hydroxy benzoic acid-coupled beads are utilized to pull down the possible ligand for 3,4,5-tri-hydroxy benzoic acid. After incubation of each bead with cell lysate of OBA9, the beads are washed, and the cellular materials that bind to the beads are separated in SDS-PAGE. At least 3 bands (MW 35 kD, 70 kD and 90 kD), which are distinct to 3,4,5-tri-hydroxy benzoic acid, are detected, as compared to the other beads (control, 2,6-di-hydroxy benzoic acid and control plain beads). […]
# [3] = test system: LL-37 from OBA9 cells; assay: In vitro induction of LL-37 protein (ELISA) from OBA9 cells; type: cell-based, human; settings: 20 ug/ml
# Experimental: (§1) Using ELISA systems to detect LL-37 (Forsyth in-house) and hBD2 (Peprotech), 33 natural compounds (20 ug/ml) are examined for their ability to induce LL-37 and hBD2 from OBA9 cells. Although the sensitivity of the hBD2 ELISA is higher than that of LL-37 ELISA (10 pg/ml vs 1 ng/ml, respectively), the induction of LL-37 is more prominent than hBD2 (FIG. 2 A&B, LL-37; C&D, hBD2). […] Bactericidal effects of LL-37 and hBD2 are, in general, potent.
# The trihydroxybenzoate derivatives of the Invention and rosemarinic acid, courmarin, catechin gallate, epicatechin gallate, epigallocatechin, and tannic acid are tested to induce LL-37 from OBA9 cells in the absence of EGCG.
# [4] = test system: Actinobacillus actinomycetemcomitans Y4 (Aa Y4); assay: Bactericidal effect of culture supernatant of treated OBA9 cells; type: cell-based; settings: 20 ug/ml; compared with non-treated, catechin- or 2,4-dihydroxy benzoic acid-treated OBA9 supernatant
# Experimental: The culture supernatant isolate from OBA9 is treated with 1) EGCG, 2) catechin, 3) 2,4-dihydroxy benzoic acid, and 4) 3,4,5-tri-hydroxy benzoic acid (20 ug/ml, respectively) and examined for their bactericidal effects on Actinobacillus actinomycetemcomitans Y4 (Aa Y4).
# [5] = test system: LL-37 protein in cheek epithelial cells; assay: LL-37 protein expression by cheek epithelium (Western blot); type: in vivo, human; settings: isolated cheek cells, anti-LL-37 monoclonal antibody
# Excerpt: (§2) Cheek epithelium is utilized for monitoring LL-37 mRNA and protein expression to determine if Trihydroxybenzoate Derivatives of the Invention can induce LL-37 in vivo. […] The isolated cheek cells are also subjected to Western blot analysis for protein expression of LL-37 by cheek epithelium using anti-LL-37 monoclonal antibody. The expression of both the proform (18 kD, also termed as hCAP18) and secreted form (4.5 kD) of LL-37 (12) in cheek epithelial cells is induced by Trihydroxybenzoate Derivatives of the Invention (e.g., EGCG (95% SIGMA), or by EGCG (90% Teavigo)).
# [6] = test system: LL-37 mRNA expression in OBA9 cells; assay: LL-37 mRNA expression in human gingival epithelial cells; type: cell-based; settings: 4-hour exposure, 0.1, 1.0 and 10 ug/ml
# Experimental: (§3) Both LL-37 and hBD2 mRNA expression in OBA9 cells are induced after a 4-hour exposure to green tea polyphenol extract, Teaflan 90S (EGCG 50%, ECG 13%), and purified EGCG (95% pure, SIGMA) at concentrations of 0.1, 1.0 and 10 ug/ml. EGCG increases the production of LL-37 and hBD2 at the mRNA level in the human gingival epithelial cell line OBA9 (FIG. 1) as well as the human lung carcinoma cell line A549.
# [7] = test system: hBD2 mRNA expression in OBA9 cells; assay: hBD2 mRNA expression in human gingival epithelial cells; type: cell-based; settings: 4-hour exposure, 0.1, 1.0 and 10 ug/ml
# Experimental: as §3
# [8] = test system: LL-37 mRNA in A549; assay: LL-37 mRNA level in lung carcinoma cell line; type: cell-based; settings: human lung carcinoma cell line A549
# Experimental: as §3
# [9] = test system: hBD2 mRNA in A549; assay: hBD2 mRNA level in lung carcinoma cell line; type: cell-based; settings: human lung carcinoma cell line A549
# Experimental: as §3
# [10] = test system: LL-37 mRNA in cheek epithelial cells; assay: In vivo LL-37 mRNA expression by human cheek epithelial cells after mouthwash (RT-PCR); settings: mouthwash with EGCG (40 ug/ml), after only 5 minutes from application
# Excerpt: as §2
# [11] = test system: LL37 mRNA in OBA9 cells; assay: EGCG-induced LL37 mRNA expression in OBA9 cells with or without DDX5 RNAi (RT-PCR); type: cell-based, human; settings: EGCG 40 ng/ml, 30 minutes
# Experimental: (§4) Our hypothesis that THBC induction of LL-37 expression is mediated via binding to DDX5 is further supported by the finding that inhibition of DDX5 expression in gingival epithelial cells (OBA9) reduces EGCG-mediated LL-37 expression. Confluent OBA9 cells in a tissue culture plate are treated with or without DDX5-specific siRNA sequences (three different siRNA sequences specific to DDX5 are examined). After 24 h and 48 h incubation, total RNA and proteins are extracted, respectively, from the OBA9 cells. […] The OBA9 cells pre-incubated with non-target siRNA and DDX5-siRNA for 48 hours are restimulated with EGCG (40 ng/ml) for 30 min, and mRNA expression for LL-37 and […] was detected by RT-PCR. […] Effects of DDX5-siRNA treatment on EGCG-mediated LL-37 protein expression by OBA9 cells is measured by ELISA.
# After treatment of OBA9 cells with control non-target siRNA or DDX5-siRNA (#A) for 48 hours, the OBA9 cells were incubated with or without EGCG (40 ng/ml) for 30 minutes. The total RNA isolated from the OBA9 cells was subjected to RT-PCR for LL37 mRNA as well as internal control β-actin mRNA.
# [12] = test system: LL37 protein in OBA9 cells; assay: EGCG-induced LL37 protein expression in OBA9 cells with or without DDX5 RNAi (ELISA); type: cell-based, human; settings: OBA9 culture supernatant, EGCG 40 ng/ml, 30 min to 24 hours
# Experimental: as §4
# The OBA9 cells which were pre-treated with control non-target siRNA or DDX5-siRNA (#A) for 48 hours, as shown in 1-B, were incubated with EGCG (40 ng/ml) for different periods from 30 min to 24 hours. The supernatant harvested from the OBA9 cell culture was subjected to ELISA for LL37 protein.
# [13] = test system: LL-37 in OBA9 cells; assay: EGCG-induced LL-37 (ELISA) in OBA9 cells over expressing DDX5; type: cell-based, human; settings: EGCG 40 ng/ml, 2 hours
# Experimental: The OBA9 cells transfected with either DDX5 over-expression vector (pK0203) or control empty vector (pKO108) were cultured for 48 h. Thereafter, the OBA9 cells were incubated with or without EGCG (40 ng/ml) for 2 hours, and the culture supernatant was subjected to ELISA for the detection of LL-37.
# [14] = test system: hBD2 from OBA9 cells; assay: In vitro induction of hBD2 protein (ELISA) from OBA9 cells; type: cell-based, human; settings: 20 ug/ml
# Experimental: as §1
# T1 sequence (P17844 whole entry): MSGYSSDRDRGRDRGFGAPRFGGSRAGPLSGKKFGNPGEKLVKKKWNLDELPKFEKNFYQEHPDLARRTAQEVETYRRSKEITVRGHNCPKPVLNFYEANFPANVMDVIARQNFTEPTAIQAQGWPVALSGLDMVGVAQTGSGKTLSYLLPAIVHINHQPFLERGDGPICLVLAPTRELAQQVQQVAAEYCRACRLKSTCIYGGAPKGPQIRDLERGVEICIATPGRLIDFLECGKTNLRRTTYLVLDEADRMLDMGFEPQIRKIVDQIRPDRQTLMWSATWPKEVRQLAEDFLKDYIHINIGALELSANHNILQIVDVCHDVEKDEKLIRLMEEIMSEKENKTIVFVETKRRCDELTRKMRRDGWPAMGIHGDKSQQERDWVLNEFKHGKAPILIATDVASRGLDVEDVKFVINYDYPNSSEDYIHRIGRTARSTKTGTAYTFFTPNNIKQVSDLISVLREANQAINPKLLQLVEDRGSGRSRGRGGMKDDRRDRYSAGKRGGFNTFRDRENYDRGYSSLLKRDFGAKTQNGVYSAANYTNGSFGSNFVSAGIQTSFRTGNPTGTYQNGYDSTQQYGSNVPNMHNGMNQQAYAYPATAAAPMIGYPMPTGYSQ
molecule,measurement,setting,value
"O=C(O)c1ccc(O)c(O)c1O [2,3,4-tri-hydroxy benzoic acids, 2,3,4-trihydroxybenzoic acid]",induction of LL-37 expression by OBA9 cells,[1],show the induction of LL-37 expression
same,"binding to DDX5 (pull down, 70 kD band)",[2],"only found in 2,3,4-THDC beads"
"O=C(O)c1c(O)cc(O)cc1O [2,4,6-tri-hydroxy benzoic acids, reference compound]",induction of LL-37 expression by OBA9 cells,[1],not
"O=C(O)c1c(O)cccc1O [2,6-di-hydroxy benzoic acids, 2,6-dihydroxy benzoic acid, reference compound]",induction of LL-37 expression by OBA9 cells,[1],not
"O=C(O)c1cc(O)c(O)c(O)c1 [3,4,5-tri-hydroxy benzoic acid, 3,4,5-trihydroxybenzoic acid]",induction of LL-37 (ELISA),[3],"more potent than 3,4,-dihydroxy benzoate"
same,bactericidal effects of culture supernatant of treated OBA9 cells on Aa Y4,[4],more bactericidal effects
same,induction of LL-37 expression by OBA9 cells,[1],show the induction of LL-37 expression
same,"binding to DDX5 (pull down, 70 kD band)",[2],binds to DDX5 expressed in gingival epithelial cells with high affinity
O=C(O[C@@H]1Cc2c(O)cc(O)cc2O[C@@H]1c1cc(O)c(O)c(O)c1)c1cc(O)c(O)c(O)c1 [EGCG (90% Teavigo)],expression of proform (18 kD) and secreted form (4.5 kD) of LL-37 in cheek epithelial cells (Western blot),[5],induced
"O=C(O[C@@H]1Cc2c(O)cc(O)cc2O[C@@H]1c1cc(O)c(O)c(O)c1)c1cc(O)c(O)c(O)c1 [EGCG, epigallocatechin gallate]",LL-37 mRNA expression,[6],induced
same,hBD2 mRNA expression,[7],induced
same,production of LL-37 at the mRNA level,[8],increases
same,production of hBD2 at the mRNA level,[9],increases
same,bactericidal effects of culture supernatant of treated OBA9 cells on Aa Y4,[4],more bactericidal effects
same,LL-37 mRNA expression by cheek epithelial cells (RT-PCR),[10],up-regulated
same,expression of proform (18 kD) and secreted form (4.5 kD) of LL-37 in cheek epithelial cells (Western blot),[5],induced
same,"binding to DDX5 (pull down, 70 kD band)",[2],binds to DDX5
same,LL37 mRNA expression induced by EGCG,[11],induced
same,LL37 protein expression after EGCG stimulation (ELISA),[12],detected as early as 30 min until 24 hours; also recorded: increased in a time dependent manner
same,LL-37 expression induced by EGCG (ELISA),"[13]; OBA9 with no vector, empty vector pK0108 or pK0203",induced the LL-37 expression in all three conditions
same,LL-37 expression induced by EGCG in OBA9 transfected with DDX5 over-expression vector versus no vector or empty vector,"[13]; P<0.05, Student t test",significantly higher
CCCCCCCCCCCCCC(=O)O[C@@H]1[C@@H](C)[C@@]2(O)[C@@H](C=C(CO)C[C@]3(O)C(=O)C(C)=C[C@@H]23)[C@@H]2C(C)(C)[C@]12OC(C)=O [PMA],induction of LL-37 (ELISA),[3],induced LL-37
same,induction of hBD2 (ELISA),[14],minimal induction activities
O=C(/C=C/c1ccc(O)c(O)c1)O[C@H](Cc1ccc(O)c(O)c1)C(=O)O [Rosemarinic acid],induction of LL-37 (ELISA),[3],little or no induction
O=c1ccc2ccccc2o1 [courmarin],induction of LL-37 (ELISA),[3],little or no induction
Poly IC,induction of LL-37 (ELISA),[3],induced LL-37
same,induction of hBD2 (ELISA),[14],minimal induction activities
